What was measured:
[1] = system: HCV subgenomic RNA replicon of genotype 1b in Huh7^A2HCV^Rep cells; assay: Luciferase activity assay, HCV replicon in vitro replication; type: cell-based; details: Hepatitis C virus, 500 nM
Source text: A hepatoma cell line (Huh7-Lunet) designated Lunet-HlaA2-luc/neoET (Huh7^A2HCV^Rep) and Lunet-HlaA2 (Huh7^A2) were kindly provided by Dr. Volker Lohmann (UniversitätsKlinikum Heidelberg, Molekulare Virologie). The Lunet-HlaA2-luc/neoET expressed ectopically HLA-A2 and a selectable HCV subgenomic RNA replicon of genotype 1b harboring replication-enhancing mutations in NS3 and NS4 (Con1-ET). The replicon also expresses the selectable marker neomycin phosphotransferase, which inactivates the cytotoxic drug G418. The expression of non-structural proteins was driven by the encephalomyocarditis virus IRES (Robinson, M., Yang, H., Peng B. et al. 2010. Antimicrobial Agents and Chemotherapy. 54(8):3099-3106; Pasetto, A., Frelin, L. et al. 2012. J immunol. 189:4510-4519). The replicon cells expressed the firefly luciferase gene fused to the selectable marker by ubiquitin. As control, the parenteral cell line, designated Lunet-HlaA2, was used.
(§1) Cells were seeded in flat bottom 96-well plates (Nuncleon™ Δ Surface, Denmark) at a density of 5 000 cells/well in 100 μL of culture medium without antibiotics (G418, puromycin and blasticidin). […] The final concentration of DMSO never exceeded 0.2%. AGSOL 1000-5-5, diluted in culture medium, was added at several concentrations: 0.01 ng/mL, 0.1 ng/mL, 1 ng/mL, 10 ng/mL, 0.1 μg/mL, 1 μg/mL, 10 μg/mL and 100 μg/mL. AGSOL 100-5-5 was added as described above, excluding the concentration 100 μg/mL. Medium without added cells and cells without any inhibitors constituted negative controls. Each concentration of drug was tested in 5 unique wells and the same protocol was carried out for Huh7^A2HCV^Rep and Huh7^A2 cell lines. Inhibitors were refreshed daily. The experimental assays were performed three times with similar results.
The Lunet-HlaA2 (Huh7^A2) cell line was only used as negative control in this assay. The firefly luciferase gene expressed by the replicon cells catalyses the mono-oxygenation of beetle luciferin according to the reaction described in the following reaction scheme:
At time-points 24, 48, 72 and 96 hours post-addition of inhibitors, culture plates were removed from incubator into laminar flow hood and an equal volume of Luciferase assay reagent to that of the culture medium in each well was added. Three minutes were allowed for complete cell lysis, and subsequently the luminescence was measured. Absorbance and luminescence were read by Infinite 200 PRO reader (Tecan Group Ltd, Maennedorf, Switzerland).
The HCV in vitro replication was quantified by measuring the reporter gene expression. The Huh7^A2HCV^Rep cell line expresses both the HCV replicon and the firefly luciferase gene. The measurement of luciferase correlates with the HCV replication activity.

[2] = system: Huh7^A2HCV^Rep and Huh7^A2 cell lines; assay: MTT tetrazolium proliferation / cellular toxicity assay; type: cell-based
Description: as §1, with “Each concentration of drug was tested in 5 unique wells and the same protocol was carried out for Huh7^A2HCV^Rep and Huh7^A2 cell lines. Inhibitors were refreshed daily. The experimental assays were performed three times with similar results.” left out
The 3-[4,5-dimethyltiazol-2-yl]-2,5-diphenyl tetrazolium bromide is cleaved by mitochondrial dehydrogenases of viable cells, leading to purple formazan in the form of insoluble crystals in aqueous solutions but dissolved in acidified isopropanol. The resulting purple solution is spectrophotometrically measured. […]
At time-points 24, 48, 72 and 96 hours post-addition of inhibitors, culture plates were removed from incubator into laminar flow hood. […] The background absorbance of multi-well plates was measured at 690 nm and was subtracted from the 570 nm values. Results were presented as the percentage of viability per condition (inhibitor/concentration) and the absorbance (A570 nm−A690 nm) per time-point for each inhibitor and per cell line. […]

## CC(C)(C)NC(=O)N[C@H](C(=O)N1C[C@H]2[C@@H]([C@H]1C(=O)NC(CC1CCC1)C(=O)C(N)=O)C2(C)C)C(C)(C)C (stereo partly drawn) [Boceprevir]
[1]; 24 hpa
  inhibition at 0.5 µM: ~85%
[1]; 48 hpa
  inhibition at 0.5 µM: ~90%
[1]; 72 hpa
  inhibition at 0.5 µM: ~90%
[1]; 96 hpa
  inhibition at 0.5 µM: ~90%
[2]; Boceprevir 100-500 nM, throughout the experiments (24-96 hpa), both cell lines
  cellular viability compared to cells grown without inhibitor: ≥ 75%
[2]; Boceprevir, 24, 48, 72 and 96 hours post-addition
  cellular toxicity by kinetic analysis of absorbance values: did not cause any markedly cellular toxicity

From patent US20220304926A1, “PHARMACEUTICAL COMPOSITION COMPRISING A COLLOIDAL DISPERSION AND METHODS AND USES THEREOF” (PREBONA AB, priority 2019, published 2022)
